Patent US11649255B2, “Indazoles as hematopoietic progenitor kinase 1 (HPK1) inhibitors and methods using same” (1st Biotherapeutics, Inc., priority 2020, dated 2023)

Target: recombinant human HPK1 (Homo sapiens (Human), UniProt Q92918)
Assay: HPK1 kinase assay (ADP-Glo)
Format: biochemical
Settings: 25 μM ATP, MBP substrate
Summary of the method: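 Activity was read as ADP formed, detected by ADP-Glo luminescence after the reaction of 5 ng recombinant human HPK1 with MBP and ATP (stocks 0.5 μg/μl and 25 μM) for 40 min at 30 °C. Buffer was Tris pH 7.5 with MgCl2, BSA and DTT, with compound in 0.5% DMSO. IC50 came from inhibition curves.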

recombinant human HPK1, sequence (Q92918 whole entry): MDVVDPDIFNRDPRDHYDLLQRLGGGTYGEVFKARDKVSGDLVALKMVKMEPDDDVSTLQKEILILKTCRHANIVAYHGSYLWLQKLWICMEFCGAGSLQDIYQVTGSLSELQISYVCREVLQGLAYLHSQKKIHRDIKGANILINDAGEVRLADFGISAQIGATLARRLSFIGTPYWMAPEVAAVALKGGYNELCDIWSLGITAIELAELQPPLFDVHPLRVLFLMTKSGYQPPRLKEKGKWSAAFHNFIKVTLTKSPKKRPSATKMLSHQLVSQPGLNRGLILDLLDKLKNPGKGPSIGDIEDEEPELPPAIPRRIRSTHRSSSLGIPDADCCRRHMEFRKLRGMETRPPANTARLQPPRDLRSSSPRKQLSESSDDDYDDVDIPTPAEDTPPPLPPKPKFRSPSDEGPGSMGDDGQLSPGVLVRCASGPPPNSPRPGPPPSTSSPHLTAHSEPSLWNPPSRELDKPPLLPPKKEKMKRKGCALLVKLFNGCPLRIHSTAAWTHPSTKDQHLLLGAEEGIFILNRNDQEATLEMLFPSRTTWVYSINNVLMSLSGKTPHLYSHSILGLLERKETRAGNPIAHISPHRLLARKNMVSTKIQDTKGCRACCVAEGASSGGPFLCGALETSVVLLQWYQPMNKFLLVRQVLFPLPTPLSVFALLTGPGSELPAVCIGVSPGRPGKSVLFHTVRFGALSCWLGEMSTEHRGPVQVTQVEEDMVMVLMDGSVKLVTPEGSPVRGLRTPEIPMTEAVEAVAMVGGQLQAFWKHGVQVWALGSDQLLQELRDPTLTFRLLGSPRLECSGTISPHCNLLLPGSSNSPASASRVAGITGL

Structure (SMILES)	IC50
CNC1CCC(N(C)c2c(F)c(Cl)c(-c3ccn4nc(NC(=O)[C@@H]5C[C@@H]5F)cc4c3)c3cn[nH]c23)CC1 (stereo partly drawn) [Example 505, (1S,2S)-N-(5-(5-chloro-6-fluoro-7-(methyl((1S,4S)-4-(methylamino)cyclohexyl)amino)-1H-indazol-4-yl)pyrazolo[1,5-a]pyridin-2-yl)-2-fluorocyclopropane-1-carboxamide]	< 100 nM
Cc1ccc2[nH]ncc2c1-c1ccc2nc(NC(=O)C3CC(F)(F)C3)sc2c1 [Example 11, 3,3-difluoro-N-(6-(5-methyl-1H-indazol-4-yl)benzo[d]thiazol-2-yl)cyclobutane-1-carboxamide]	501 to 1000 nM
CSc1c(F)c(F)c2[nH]ncc2c1-c1ccc2nc(NC(=O)[C@@H]3C[C@@H]3F)sc2c1 [Example 117, (1S,2S)-N-(6-(6,7-difluoro-5-(methylthio)-1H-indazol-4-yl)benzo[d]thiazol-2-yl)-2-fluorocyclopropane-1-carboxamide 2,2,2-trifluoroacetate]	< 100 nM
COC[C@H](C)c1c(F)c(Cl)c(-c2ccc3nc(NC(=O)[C@@H]4C[C@@H]4F)cn3c2)c2cn[nH]c12 [Example 422, (1S,2S)-N-(6-(5-chloro-6-fluoro-7-((R)-1-methoxypropan-2-yl)-1H-indazol-4-yl)imidazo[1,2-a]pyridin-2-yl)-2-fluorocyclopropane-1-carboxamide]	< 100 nM
O=C(Nc1nc2ccc(-c3c(Cl)c(F)cc4[nH]ncc34)nc2s1)[C@@H]1C[C@@H]1F [Example 153, (1S,2S)-N-(5-(5-chloro-6-fluoro-1H-indazol-4-yl)thiazolo[5,4-b]pyridin-2-yl)-2-fluorocyclopropane-1-carboxamide]	< 100 nM
Cc1ccc2[nH]ncc2c1-c1ccc2nc(NC(=O)C3CCC3)sc2c1 [Example 4, N-(6-(5-methyl-1H-indazol-4-yl)benzo[d]thiazol-2-yl)cyclobutanecarboxamide]	501 to 1000 nM
O=C(Nc1nc2ccc(-c3c(Cl)c(F)c(NCC4CNC4)c4[nH]ncc34)cc2s1)[C@@H]1C[C@@H]1F [Example 95, (1S,2S)-N-(6-(7-((azetidin-3-ylmethyl)amino)-5-chloro-6-fluoro-1H-indazol-4-yl)benzo[d]thiazol-2-yl)-2-fluorocyclopropanecarboxamide]	< 100 nM
C[C@@H](c1c(F)c(Cl)c(-c2ccc3nc(NC(=O)[C@@H]4C[C@@H]4F)cn3c2)c2cn[nH]c12)n1ncnn1 [Example 408, (1S,2S)-N-(6-(7-((S)-1-(2H-tetrazol-2-yl)ethyl)-5-chloro-6-fluoro-1H-indazol-4-yl)imidazo[1,2-a]pyridin-2-yl)-2-fluorocyclopropane-1-carboxamide]	< 100 nM
C=Cc1ccc2[nH]ncc2c1-c1ccc2nc(NC(=O)[C@@H]3C[C@@H]3F)sc2c1 [Example 35, (1S,2S)-2-fluoro-N-(6-(5-vinyl-1H-indazol-4-yl)benzo[d]thiazol-2-yl)cyclopropane-1-carboxamide]	101 to 500 nM
CN(c1nccnn1)c1c(F)c(Cl)c(-c2ccn3nc(NC(=O)[C@@H]4C[C@@H]4F)cc3c2)c2cn[nH]c12 [Example 618, (1S,2S)-N-(5-(5-chloro-6-fluoro-7-(methyl(1,2,4-triazin-3-yl)amino)-1H-indazol-4-yl)pyrazolo[1,5-a]pyridin-2-yl)-2-fluorocyclopropane-1-carboxamide]	< 100 nM
Cc1c(F)c(OCCOC(N)=O)c2[nH]ncc2c1-c1ccn2nc(NC(=O)[C@@H]3C[C@@H]3F)cc2c1 [Example 535, 2-((6-fluoro-4-(2-((1S,2S)-2-fluorocyclopropane-1-carboxamido)pyrazolo[1,5-a]pyridin-5-yl)-5-methyl-1H-indazol-7-yl)oxy)ethyl carbamate]	< 100 nM
O=C(Nc1cc2cc(-c3c(Br)c(F)cc4[nH]ncc34)ccn2n1)[C@@H]1C[C@@H]1F [Example 464, (1S,2S)-N-(5-(5-bromo-6-fluoro-1H-indazol-4-yl)pyrazolo[1,5-a]pyridin-2-yl)-2-fluorocyclopropane-1-carboxamide]	< 100 nM
CN(c1c(F)c(Cl)c(-c2ccn3nc(NC(=O)[C@@H]4C[C@@H]4F)cc3c2)c2cn[nH]c12)C1CC1 [Example 625, (1S,2S)-N-(5-(5-chloro-7-(cyclopropyl(methyl)amino)-6-fluoro-1H-indazol-4-yl)pyrazolo[1,5-a]pyridin-2-yl)-2-fluorocyclopropane-1-carboxamide]	< 100 nM
Cc1c(F)cc2[nH]ncc2c1-c1ccc2nc(NC(=O)[C@@H]3C[C@@H]3F)sc2n1 [Example 147, (1S,2S)-2-fluoro-N-(5-(6-fluoro-5-methyl-1H-indazol-4-yl)thiazolo[5,4-b]pyridin-2-yl)cyclopropane-1-carboxamide]	< 100 nM
Cc1ccc2[nH]ncc2c1-c1ccc2nc(NC(=O)C3CC(F)C3)sc2c1 [Example 7, (1R,3R)-3-fluoro-N-(6-(5-methyl-1H-indazol-4-yl)benzo[d]thiazol-2-yl)cyclobutane-1-carboxamide]	101 to 500 nM

The next lines start with the values.

IC50	Structure (SMILES)
> 1000 nM	O=C(Nc1cn2cc(-c3c(Br)ccc4[nH]ncc34)ccc2n1)C1CC1 [Example 228, N-(6-(5-bromo-1H-indazol-4-yl)imidazo[1,2-a]pyridin-2-yl)cyclopropanecarboxamide]
< 100 nM	C=C(C)c1c(F)c(Cl)c(-c2ccn3nc(NC(=O)[C@@H]4C[C@@H]4F)cc3c2)c2cn[nH]c12 [Example 639, (1S,2S)-N-(5-(5-chloro-6-fluoro-7-(prop-1-en-2-yl)-1H-indazol-4-yl)pyrazolo[1,5-a]pyridin-2-yl)-2-fluorocyclopropane-1-carboxamide]
< 100 nM	O=C(CCO)Nc1c(F)c(Cl)c(-c2ccc3nc(NC(=O)[C@@H]4C[C@@H]4F)cn3c2)c2cn[nH]c12 [Example 369, (1S,2S)-N-(6-(5-chloro-6-fluoro-7-(3-hydroxypropanamido)-1H-indazol-4-yl)imidazo[1,2-a]pyridin-2-yl)-2-fluorocyclopropane-1-carboxamide]
501 to 1000 nM	N#Cc1ccc2[nH]ncc2c1-c1ccn2nc(NC(=O)[C@@H]3C[C@@H]3F)cc2c1 [Example 456, (1S,2S)-N-(5-(5-cyano-1H-indazol-4-yl)pyrazolo[1,5-a]pyridin-2-yl)-2-fluorocyclopropane-1-carboxamide]
< 100 nM	CCOc1c(F)c(Cl)c(-c2ccc3nc(NC(=O)[C@@H]4C[C@@H]4F)sc3c2)c2cn[nH]c12 [Example 81, (1S,2S)-N-(6-(5-chloro-7-ethoxy-6-fluoro-1H-indazol-4-yl)benzo[d]thiazol-2-yl)-2-fluorocyclopropane-1-carboxamide]
101 to 500 nM	Cc1c(F)cc2[nH]nc(C)c2c1-c1ccn2nc(NC(=O)[C@@H]3C[C@@H]3F)cc2c1 [Example 470, (1S,2S)-2-fluoro-N-(5-(6-fluoro-3,5-dimethyl-1H-indazol-4-yl)pyrazolo[1,5-a]pyridin-2-yl)cyclopropane-1-carboxamide]
< 100 nM	COc1c(F)c(Cl)c(-c2ccn3nc(NC(=O)[C@@H]4C[C@@H]4F)cc3c2)c2cn[nH]c12 [Example 492, (1S,2S)-N-(5-(5-chloro-6-fluoro-7-methoxy-1H-indazol-4-yl)pyrazolo[1,5-a]pyridin-2-yl)-2-fluorocyclopropane-1-carboxamide]
> 1000 nM	COCCOc1ccc2[nH]ncc2c1-c1ccc2nc(NC(=O)[C@@H]3C[C@@H]3F)sc2c1 [Example 34, (1S,2S)-2-fluoro-N-(6-(5-(2-methoxyethoxy)-1H-indazol-4-yl)benzo[d]thiazol-2-yl)cyclopropane-1-carboxamide]
< 100 nM	CC(NC(=O)C1CCC1)c1c(F)c(Cl)c(-c2ccn3nc(NC(=O)[C@@H]4C[C@@H]4F)cc3c2)c2cn[nH]c12 (stereo partly drawn) [Example 661, N-(1-(5-chloro-6-fluoro-4-(2-((1S,2S)-2-fluorocyclopropane-1-carboxamido)pyrazolo[1,5-a]pyridin-5-yl)-1H-indazol-7-yl)ethyl)cyclobutanecarboxamide]
< 100 nM	O=C(Nc1cn2cc(-c3c(Cl)c(F)c(SCCO)c4[nH]ncc34)ccc2n1)[C@@H]1C[C@@H]1F [Example 290, (1S,2S)-N-(6-(5-chloro-6-fluoro-7-((2-hydroxyethyl)thio)-1H-indazol-4-yl)imidazo[1,2-a]pyridin-2-yl)-2-fluorocyclopropane-1-carboxamide]
< 100 nM	COc1c(F)cc2[nH]ncc2c1-c1ccn2nc(NC(=O)[C@@H]3C[C@@H]3F)cc2c1 [Example 467, (1S,2S)-2-fluoro-N-(5-(6-fluoro-5-methoxy-1H-indazol-4-yl)pyrazolo[1,5-a]pyridin-2-yl)cyclopropane-1-carboxamide]
< 100 nM	Cc1c(F)c(SCCO)c2[nH]ncc2c1-c1ccc2nc(NC(=O)[C@@H]3C[C@@H]3F)sc2n1 [Example 163, (1S,2S)-2-fluoro-N-(5-(6-fluoro-7-((2-hydroxyethyl)thio)-5-methyl-1H-indazol-4-yl)thiazolo[5,4-b]pyridin-2-yl)cyclopropane-1-carboxamide]
< 100 nM	Cc1c(F)cc2[nH]ncc2c1-c1ccc2nc(NC(=O)C3CC3)cn2c1 [Example 245, N-(6-(6-fluoro-5-methyl-1H-indazol-4-yl)imidazo[1,2-a]pyridin-2-yl)cyclopropanecarboxamide]
> 1000 nM	CCc1ccc2[nH]ncc2c1-c1ccc2nc(NC(=O)C3CC3)cn2c1 [Example 234, N-(6-(5-ethyl-1H-indazol-4-yl)imidazo[1,2-a]pyridin-2-yl)cyclopropanecarboxamide]
< 100 nM	O=C(Nc1cn2cc(-c3c(Cl)c(F)c(-n4cccc4)c4[nH]ncc34)ccc2n1)[C@@H]1C[C@@H]1F [Example 365, (1S,2S)-N-(6-(5-chloro-6-fluoro-7-(1H-pyrrol-1-yl)-1H-indazol-4-yl)imidazo[1,2-a]pyridin-2-yl)-2-fluorocyclopropane-1-carboxamide]
> 1000 nM	O=C(Nc1nc2ccc(-c3cc(-c4cccs4)cc4[nH]ncc34)cc2s1)C1CC1 [Example 22, N-(6-(6-(thiophen-2-yl)-1H-indazol-4-yl)benzo[d]thiazol-2-yl)cyclopropanecarboxamide]
